Here are results for two molecules from patent EP1090017B1, “NOVEL COMPOUNDS DERIVED FROM ALPHA-D-XYLOSE, PREPARATION METHOD AND THERAPEUTIC USE” (FOURNIER INDUSTRIE ET SANTE, priority 1998, dated 1999).

In test [1] the test system is cholestérol sérique. Nature of the test: Serum cholesterol (area under curve) measured periodically during the 14-week apoE-deficient mouse trial. The class given is in vivo, souris. The conditions noted are these: for AUC (aire sous courbe du cholestérol): whole 14 weeks of the trial. From the text:
(§1) L'activité antiathéromateuse des composés selon l'invention a été mise en évidence sur des souris femelles, déficientes en apolipoprotéine E (homozygotes). Selon le protocole de ce test, le produit à évaluer est administré dans la nourriture (régime alimentaire standard) pendant 14 semaines. Après ce laps de temps, les souris sont euthanasiées et le coeur et la crosse aortique sont prélevés. Les surfaces lésées sont évaluées selon la méthode décrite dans Arteriosclerosis, 1990, 10, p. 316-323.
Durant les 14 semaines de l'essai décrit ci-dessus dans le but d'évaluer les propriétés antiathéromateuses des composés, on a mesuré périodiquement le taux de cholestérol sérique des souris traitées et des souris témoins, et le résultat est exprimé sous la forme aire sous courbe (AUC) du cholestérol pendant toute la durée de l'essai. Les résultats obtenus avec le composé de l'exemple 2 sont reportés dans le tableau II où AUC représente l'aire sous courbe (exprimée en g.jour.1^-1) et la variation (en pourcentage) est appréciée par rapport au groupe témoin. Tableau II

Test [2] relates to souris femelles, déficientes en apolipoprotéine E (homozygotes). Kind of test: Antiatheromatous activity in apolipoprotein E-deficient mice: lesion surface after 14 weeks of compound in the food. Format: in vivo. The following applies: 300 mg/kg in the food, versus untreated control mice.
Source text: as §1
Le tableau I présente les résultats obtenus selon ce test pratiqué avec le composé de l'exemple 2 à différentes doses. Les résultats sont exprimés en pourcentage de réduction de la surface des plaques d'athérome, par rapport à un groupe de souris témoin non traitées. Tableau I

Turning to `N#Cc1ccc(C(=O)c2ccc(S[C@H]3SC[C@@H](O)[C@H](O)[C@H]3O)cc2)cc1` [Exemple 2, [4-(4-cyanobenzoyl)phényl] 1,5-dithio-α-D-xylopyranoside], the “variation (%) de l'AUC du cholestérol” value in test [1] (10 mg/kg, versus control group) was determined as 0%. Further, the “AUC (aire sous courbe du cholestérol)” value is 585 ± 15 g.jour.1^-1 in test [1] (10 mg/kg), 507 ± 16 g.jour.1^-1 in test [1] (100 mg/kg) and 505 ± 20 g.jour.1^-1 in test [1] (300 mg/kg).

Regarding `N#Cc1ccc(C(=O)c2ccc(S[C@@H]3SC[C@@H](O)[C@H](O)[C@H]3O)cc2)cc1` [[4-(4-cyanobenzoyl)phényl] 1,5-dithio-β-D-xylopyranoside], in test [2], the “Réduction (%) de la surface des plaques d'athérome” value was 30%.
